Reference: US10196364B2, “Pyrimidine carboxamides as sodium channel blockers” (Purdue Pharma L.P., priority 2013, dated 2019)

target: human Nav1.7 (Homo sapiens, UniProt Q15858); assay: FLIPR sodium dye assay (CoroNa Green AM Na+ dye, primary fluorescence assay) in recombinant Nav1.7/HEK293 cells; type: cell-based; settings: Table 6; CoroNa Green AM Na+ dye primary fluorescence assay; read-out: Nav1.7 Activity (μM) FLIPR assay IC50
Sequence (Q15858 1-1977 isoform Q15858-3): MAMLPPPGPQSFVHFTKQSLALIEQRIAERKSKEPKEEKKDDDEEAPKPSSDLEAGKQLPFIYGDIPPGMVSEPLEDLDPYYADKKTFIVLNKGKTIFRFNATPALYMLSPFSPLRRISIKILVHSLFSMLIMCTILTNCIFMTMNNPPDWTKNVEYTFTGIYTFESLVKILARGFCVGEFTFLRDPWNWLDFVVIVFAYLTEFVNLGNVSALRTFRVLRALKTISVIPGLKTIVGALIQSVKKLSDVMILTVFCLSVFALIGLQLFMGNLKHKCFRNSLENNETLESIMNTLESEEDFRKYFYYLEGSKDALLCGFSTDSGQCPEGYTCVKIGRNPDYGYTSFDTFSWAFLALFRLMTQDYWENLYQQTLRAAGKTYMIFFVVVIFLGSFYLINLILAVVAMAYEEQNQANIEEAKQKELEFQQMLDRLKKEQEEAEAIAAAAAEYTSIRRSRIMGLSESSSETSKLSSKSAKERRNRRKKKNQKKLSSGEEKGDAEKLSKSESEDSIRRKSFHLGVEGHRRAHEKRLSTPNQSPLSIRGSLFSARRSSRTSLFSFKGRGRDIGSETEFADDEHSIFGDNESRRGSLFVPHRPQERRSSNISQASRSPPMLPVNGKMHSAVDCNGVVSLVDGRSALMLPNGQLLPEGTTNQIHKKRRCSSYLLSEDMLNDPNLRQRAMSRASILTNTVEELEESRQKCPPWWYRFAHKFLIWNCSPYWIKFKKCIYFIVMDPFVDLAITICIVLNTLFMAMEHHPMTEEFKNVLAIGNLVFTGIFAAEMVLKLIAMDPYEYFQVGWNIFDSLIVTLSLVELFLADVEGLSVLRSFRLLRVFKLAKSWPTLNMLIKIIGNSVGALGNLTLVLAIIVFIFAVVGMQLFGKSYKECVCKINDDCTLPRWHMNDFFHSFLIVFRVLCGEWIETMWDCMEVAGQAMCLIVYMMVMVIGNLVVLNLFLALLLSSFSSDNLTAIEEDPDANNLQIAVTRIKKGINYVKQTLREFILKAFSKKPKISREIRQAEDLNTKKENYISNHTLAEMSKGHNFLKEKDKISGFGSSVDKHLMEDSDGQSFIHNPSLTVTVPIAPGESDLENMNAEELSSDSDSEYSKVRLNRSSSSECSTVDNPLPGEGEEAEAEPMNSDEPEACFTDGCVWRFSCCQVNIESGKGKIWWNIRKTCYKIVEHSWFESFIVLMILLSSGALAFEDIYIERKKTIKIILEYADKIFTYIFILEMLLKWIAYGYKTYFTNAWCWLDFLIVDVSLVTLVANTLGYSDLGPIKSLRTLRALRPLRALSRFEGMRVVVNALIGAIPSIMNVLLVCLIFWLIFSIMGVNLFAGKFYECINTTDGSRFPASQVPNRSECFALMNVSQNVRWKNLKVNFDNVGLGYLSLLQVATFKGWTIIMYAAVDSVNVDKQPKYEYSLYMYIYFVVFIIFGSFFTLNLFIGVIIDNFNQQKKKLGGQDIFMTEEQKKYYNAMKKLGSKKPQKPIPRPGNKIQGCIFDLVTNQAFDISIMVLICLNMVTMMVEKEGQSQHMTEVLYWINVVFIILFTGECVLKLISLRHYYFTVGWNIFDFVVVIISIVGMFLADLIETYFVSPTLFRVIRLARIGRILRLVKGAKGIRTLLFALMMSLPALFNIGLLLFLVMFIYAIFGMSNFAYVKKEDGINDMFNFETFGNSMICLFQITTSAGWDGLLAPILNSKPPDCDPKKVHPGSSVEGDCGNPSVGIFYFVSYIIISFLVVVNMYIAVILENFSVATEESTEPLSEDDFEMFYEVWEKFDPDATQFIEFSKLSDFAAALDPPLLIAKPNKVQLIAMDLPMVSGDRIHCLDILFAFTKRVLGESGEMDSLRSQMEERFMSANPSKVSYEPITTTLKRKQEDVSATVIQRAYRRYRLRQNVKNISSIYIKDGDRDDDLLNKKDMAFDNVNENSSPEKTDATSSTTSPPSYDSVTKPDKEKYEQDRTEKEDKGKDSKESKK

| Structure (SMILES) | IC50 [µM] |
| --- | --- |
| Cc1cnc(Oc2ccc(-c3nc(N[C@@H](C)C(N)=O)cc(C(N)=O)n3)cc2)cn1 [Cpd No. 196, (S)-6-((1-amino-1-oxopropan-2-yl)amino)-2-(4-((5-methyl-pyrazin-2-yl)oxy)phenyl)-pyrimidine-4-carboxamide] | > 20 |
| NC(=O)c1cc(N[C@H]2CCNC2=O)nc(N2CC(Oc3ccc(C(F)(F)F)cn3)C2)n1 [compound 150, (S)-6-((2-oxopyrrolidin-3-yl)amino)-2-(3-((5-(trifluoromethyl)pyridin-2-yl)oxy)azetidin-1-yl)pyrimidine-4-carboxamide] | 0.95 |
| NC(=O)c1cc(O[C@@H](CO)C(N)=O)nc(-c2ccc(Oc3ccc(C(F)(F)F)cc3)cc2)n1 [compound 121, (S)-6-((1-amino-3-hydroxy-1-oxopropan-2-yl)oxy)-2-(4-(4-(trifluoromethyl)phenoxy)phenyl)pyrimidine-4-carboxamide] | 1.01 |
| NC(=O)c1cc(OCCN2CCCC2=O)nc(-c2ccc(Oc3ccc(C(F)(F)F)cc3)cc2)n1 [compound 119, 6-(2-(2-oxopyrrolidin-1-yl)ethoxy)-2-(4-(4-(trifluoromethyl)phenoxy)phenyl)pyrimidine-4-carboxamide] | 0.12 |
| NC(=O)c1cc(N[C@H]2CCNC2=O)nc(-c2ccc(Oc3ccc(C(F)(F)F)cc3CN3CCCCC3)cc2)n1 [Cpd No. 194, (S)-6-((2-oxopyrrolidin-3-yl)amino)-2-(4-(2-(piperidin-1-ylmethyl)-4-(trifluoromethyl)-phenoxy)phenyl)pyrimidine-4-carboxamide] | 2.18 |
| C[C@H](Nc1cc(C(N)=O)nc(-c2ccc(Oc3cnc(C4CC4)cn3)cc2)n1)C(N)=O [Cpd No. 195, (S)-6-((1-amino-1-oxopropan-2-yl)amino)-2-(4-((5-cyclopropyl-pyrazin-2-yl)oxy)phenyl)-pyrimidine-4-carboxamide] | > 20 |
| O=C(NCCN1CCCC1)c1cc(N[C@H]2CCNC2=O)nc(-c2ccc(Oc3ccc(C(F)(F)F)cn3)cc2)n1 [compound 137, (S)-6-((2-oxopyrrolidin-3-yl)amino)-N-(2-(pyrrolidin-1-yl)ethyl)-2-(4-((5-(trifluoromethyl)pyridin-2-yl)oxy)phenyl)pyrimidine-4-carboxamide] | 4.17 |
| COCc1cc(Oc2ccc(F)cc2)ccc1-c1nc(N[C@@H](C)C(N)=O)cc(C(N)=O)n1 [compound 130, (S)-6-((1-amino-1-oxopropan-2-yl)amino)-2-(4-(4-fluorophenoxy)-2-(methoxymethyl)phenyl)pyrimidine-4-carboxamide] | 1.77 |
| CN1CCC(Nc2cc(C(N)=O)nc(-c3ccc(Oc4ccc(F)cc4)cc3)n2)C1=O (stereo not drawn) [compound 131, 2-(4-(4-fluorophenoxy)phenyl)-6-((1-methyl-2-oxopyrrolidin-3-yl)amino)pyrimnidine-4-carboxamide] | 0.22 |
| C[C@H](Nc1cc(C(N)=O)nc(-c2cc(F)c(OCc3ccccc3)cc2F)n1)C(N)=O [compound 105, (S)-6-((1-amino-1-oxopropan-2-yl)amino)-2-(4-(benzyloxy)-2,5-difluorophenyl)pyrimidine-4-carboxamide] | > 20 |
| Cc1cnc(Oc2ccc(-c3nc(N[C@H]4CCNC4=O)cc(C(N)=O)n3)cc2)cn1 [Cpd No. 199, (S)-2-(4-((5-methylpyrazin-2-yl)oxy)phenyl)-6-((2-oxopyrrolidin-3-yl)amino)pyrimidine-4-carboxamide] | 4.67 |
| NC(=O)c1cc(N[C@H]2CCNC2=O)nc(C2=C[C@H]3CC[C@@H](C2)N3Cc2ccc(F)cc2)n1 [compound 138, 2-((1R,5S)-8-(4-fluorobenzyl)-8-azabicyclo[3.2.1]oct-2-en-3-yl)-6-(((S)-2-oxopyrrolidin-3-yl)amino)pyrimidine-4-carboxamide] | > 20 |
| NC(=O)c1cc(N[C@H]2CCNC2=O)nc(-c2ccc(Oc3ccc(C(F)(F)F)cc3CN3CCCC3)cc2)n1 [compound 169, (S)-6-((2-oxopyrrolidin-3-yl)amino)-2-(4-(2-(pyrrolidin-1-ylmethyl)-4-(trifluoromethyl)phenoxy)phenyl) pyrimidine-4-carboxamide] | 0.74 |
| CN1CC=C(c2cc(C(F)(F)F)ccc2Oc2ccc(-c3nc(N[C@H]4CCNC4=O)cc(C(N)=O)n3)cc2)CC1 [Cpd No. 207, (S)-2-(4-(2-(1-methyl-1,2,3,6-tetrahydropyridin-4-yl)-4-(trifluoromethyl)phenoxy)phenyl)-6-((2-oxopyrrolidin-3-yl)amino)pyrimidine-4-carboxamide] | 4.7 |
| COc1cnc(Oc2ccc(-c3nc(N[C@H]4CCNC4=O)cc(C(N)=O)n3)cc2)cn1 [Cpd No. 197, (S)-2-(4-((5-methoxypyrazin-2-yl)oxy)phenyl)-6-((2-oxopyrrolidin-3-yl)amino)-pyrimidine-4-carboxamide] | 5.07 |
| C[C@H](Nc1cc(C(N)=O)nc(N2CCC(Cc3ccccc3)CC2)n1)C(N)=O [compound 107, (S)-6-((1-amino-1-oxopropan-2-yl)amino)-2-(4-benzylpiperidin-1-yl)pyrimidine-4-carboxamide] | 1.95 |
| NC(=O)c1cc(N[C@H]2CCNC2=O)nc(Oc2ccc(Oc3ccc(C(F)(F)F)cn3)cc2)n1 [compound 166, (S)-6-((2-oxopyrrolidin-3-yl)amino)-2-(4-((5-(trifluoromethyl)pyridin-2-yl)oxy)phenoxy)pyrimidine-4-carboxamide] | 3.9 |
| NC(=O)c1cc(NCc2ncc[nH]2)nc(-c2ccc(Oc3ccc(F)cc3)cc2)n1 [Cpd No. 179, 6-(((1H-imidazol-2-yl)methyl)amino)-2-(4-(4-fluorophenoxy)phenyl)-pyrimidine-4-carboxamide] | > 20 |
| CN1CCN(c2cc(Oc3ccc(-c4nc(N[C@H]5CCNC5=O)cc(C(N)=O)n4)cc3)ccc2C(F)(F)F)CC1 [Cpd No. 210, (S)-2-(4-(3-(4-methylpiperazin-1-yl)-4-(trifluoromethyl)phenoxy)phenyl)-6-((2-oxopyrrolidin-3-yl)amino)pyrimidine-4-carboxamide] | 1.94 |
| C[C@H](Oc1cc(C(N)=O)nc(-c2ccc(Oc3ccc4c(c3)CCC4)cc2)n1)C(N)=O [compound 129, (S)-6-((1-amino-1-oxopropan-2-yl)oxy)-2-(4-((2,3-dihydro-1H-inden-5-yl)oxy)phenyl)pyrimidine-4-carboxamide] | 0.26 |
| CN1CCN(Cc2cc(C(F)(F)F)ccc2Oc2ccc(-c3nc(N[C@H]4CCNC4=O)cc(C(N)=O)n3)cc2)CC1 [Cpd No. 193] | > 20 |
| NC(=O)c1cc(N[C@H]2CCNC2=O)nc(-c2ccc(Oc3ccc(F)cc3)cc2CN2CCCC2)n1 [compound 160, (S)-2-(4-(4-fluorophenoxy)-2-(pyrrolidin-1-ylmethyl)phenyl)-6-((2-oxopyrrolidin-3-yl)amino)pyrimidine-4-carboxamide] | 6.67 |
| NC(=O)c1cc(-c2ccc(Oc3ccc(OC(F)(F)F)cc3)cc2)nc(N2CCC[C@H]2C(N)=O)n1 [compound 126, (S)-2-(2-carbamoylpyrrolidin-1-yl)-6-(4-(4-(trifluoromethoxy)phenoxy)phenyl)pyrimidine-4-carboxamide] | > 20 |
| NC(=O)c1cc(N[C@H]2CCNC2=O)nc(-c2ccc(Oc3ccc(OCC(F)(F)F)nn3)cc2)n1 [compound 153, (S)-6-((2-oxopyrrolidin-3-yl)amino)-2-(4-((6-(2,2,2-trifluoroethoxy)pyridazin-3-yl)oxy)phenyl)pyrimidine-4-carboxamide] | 1.13 |
